For data set [1], the target named is T1, Aurora kinase A (Homo sapiens, UniProt O14965).
T1 sequence (O14965 whole entry): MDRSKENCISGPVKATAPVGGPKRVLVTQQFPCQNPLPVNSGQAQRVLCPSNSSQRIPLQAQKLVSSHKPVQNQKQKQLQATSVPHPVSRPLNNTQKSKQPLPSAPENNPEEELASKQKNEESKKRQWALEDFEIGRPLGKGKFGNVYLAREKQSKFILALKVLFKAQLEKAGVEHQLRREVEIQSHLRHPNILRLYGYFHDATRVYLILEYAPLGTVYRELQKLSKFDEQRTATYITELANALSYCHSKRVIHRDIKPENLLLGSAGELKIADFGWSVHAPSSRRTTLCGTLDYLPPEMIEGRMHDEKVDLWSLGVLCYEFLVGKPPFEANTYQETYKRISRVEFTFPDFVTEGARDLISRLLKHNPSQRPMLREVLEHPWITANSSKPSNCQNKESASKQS
Description: Inhibition of human recombinant Aurora A expressed in baculovirus system

The test system of data set [2] is HCT-116. Briefly: Growth inhibition of human HCT116 cells at 10 uM after 72 hrs by MTT assay. The following applies: HCT-116, 72 h, read-out: GI. The format is functional. A general note: Tetrazolium dyes change colour on reduction, which living cells bring about.
A short description of data set [3]: Aqueous solubility of the compound. Conditions: buffer; call rule not given here. Format: physicochemical.
Data set [4] is described as follows: Oral bioavailability in BALB/c mouse at 5 mg/kg. Format: ADME, organism-based. The following applies: in vivo.
A short description of data set [5]: Metabolic stability in CD1 mouse liver microsomes assessed as compound remaining at 10 uM after 30 mins by LC-MS/MS analysis. The following applies: read-out: Stability. The format is ADME, Microsome. (In general: Liver microsomes are a subcellular fraction often used to study metabolism.)
The target of data set [6] is Voltage-gated inwardly rectifying potassium channel KCNH2 (Homo sapiens, UniProt Q12809). The data set is described as follows: Inhibition of human ERG at 10 uM. The following applies: 10 µM.
The test system of data set [7] is HCT-116. The data set is described as follows: Growth inhibition of human HCT116 cells after 72 hrs by MTT assay. The format is functional. Conditions: HCT-116, 72 h.
Data set [8] can be described thus: Permeability by PAMPA assay. The format is ADME. Conditions: read-out: permeability. (In general: The PAMPA barrier holds no transporters, so it reflects passive diffusion.)

This note sets out measurements from ChEMBL document CHEMBL1155446, “Imidazo[4,5-b]pyridine derivatives as inhibitors of Aurora kinases: lead optimization studies toward the identification of an orally bioavailable preclinical development candidate” (J Med Chem, 2010).

Sequence of Voltage-gated inwardly rectifying potassium channel KCNH2 (Q12809 whole entry): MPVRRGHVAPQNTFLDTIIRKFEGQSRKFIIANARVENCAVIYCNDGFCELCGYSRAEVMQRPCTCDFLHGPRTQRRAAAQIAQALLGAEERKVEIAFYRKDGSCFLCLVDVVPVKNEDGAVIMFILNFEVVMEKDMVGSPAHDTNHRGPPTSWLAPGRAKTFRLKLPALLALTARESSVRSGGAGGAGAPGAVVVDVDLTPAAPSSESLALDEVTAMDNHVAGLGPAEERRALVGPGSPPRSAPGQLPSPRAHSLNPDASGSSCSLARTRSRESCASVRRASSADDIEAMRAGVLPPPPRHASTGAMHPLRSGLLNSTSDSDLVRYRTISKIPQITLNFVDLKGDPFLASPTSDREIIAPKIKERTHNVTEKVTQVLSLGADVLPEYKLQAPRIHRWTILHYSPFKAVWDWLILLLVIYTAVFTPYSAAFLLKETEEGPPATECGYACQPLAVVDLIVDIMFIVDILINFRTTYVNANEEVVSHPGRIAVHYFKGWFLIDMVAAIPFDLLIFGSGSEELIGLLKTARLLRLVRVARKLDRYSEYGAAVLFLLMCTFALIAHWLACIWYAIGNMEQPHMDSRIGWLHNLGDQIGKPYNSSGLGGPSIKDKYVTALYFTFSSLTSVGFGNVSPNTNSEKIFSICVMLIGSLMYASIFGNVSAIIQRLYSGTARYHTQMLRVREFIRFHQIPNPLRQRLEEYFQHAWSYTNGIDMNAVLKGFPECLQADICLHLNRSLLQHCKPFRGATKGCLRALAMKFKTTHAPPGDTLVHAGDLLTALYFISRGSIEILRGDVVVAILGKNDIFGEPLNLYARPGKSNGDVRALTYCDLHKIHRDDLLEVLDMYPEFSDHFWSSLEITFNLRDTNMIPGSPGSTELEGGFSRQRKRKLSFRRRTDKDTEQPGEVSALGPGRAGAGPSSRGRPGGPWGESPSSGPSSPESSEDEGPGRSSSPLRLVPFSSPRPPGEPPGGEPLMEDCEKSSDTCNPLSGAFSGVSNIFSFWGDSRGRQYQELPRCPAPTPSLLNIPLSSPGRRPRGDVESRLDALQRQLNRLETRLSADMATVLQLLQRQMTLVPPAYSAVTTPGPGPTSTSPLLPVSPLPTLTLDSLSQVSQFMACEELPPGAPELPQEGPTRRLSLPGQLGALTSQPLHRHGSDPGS

Usually IC50 stands for the concentration that gives 50% inhibition. In turn, `O=C(CN1CCN(c2c(Br)cnc3[nH]cnc23)CC1)Nc1nccs1` displayed an IC50 in data set [1] of 517 nM. In data set [2], the inhibition of growth at 10 µM is 40%.
By solubility is commonly meant how much of the substance goes into solution per volume. High values mean much dissolved substance, low ones little dissolved substance. The bioavailability is dose-corrected exposure relative to a reference, in per cent. The term GI50 denotes the concentration at which growth is held to half of that of the control. The low end stands for more potent growth inhibition, the high end for less potent growth inhibition. In the case of `COc1ccc(-c2nc3c(N4CCN(Cc5cc(C)on5)CC4)c(Br)cnc3[nH]2)cc1`, the solubility in data set [3] is below 10 µg/mL. In addition, in data set [4], the bioavailability turned out to be 23%. In addition, the remaining at 0.5 h, 10 µM in data set [5] is above 50%. Moreover, the “inhibition (INH)” value in data set [6] was “Not Active”. The concentration for 50% growth inhibition (GI50) in data set [7] was found to be 540 nM. Moreover, the 50% inhibitory concentration (IC50) in data set [1] was 17 nM. Moreover, the Papp in data set [8] stood at 6 ×10⁻⁶ cm/s.
